In brackets after ≈: the same amount, converted by molar mass.
Legend:
[1] = test system: Staphylococcus sp.; assay: in vitro antibacterial evaluation, MIC by broth dilution; format: cell-based; details: broth dilution, 18 hours at 35° C.
In short: (§1)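 Read-out: the lowest concentration at which the test strain fails to grow. Serial dilutions (64-0.06 μg/mL) in Muller-Hinton II […], 5×10^5 CFU/mL inoculum, NCCLS M7-A2 procedure.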

[2] = test system: Escherichia coli; assay: as above; format: cell-based; details: 18 hours at 35° C.
In short: as §1

[3] = test system: Streptococcus sp.; assay: as above; format: cell-based; details: broth dilution, 18 hours at 35° C.
In short: as §1

[4] = test system: Enterococcus sp.; assay: as above; format: cell-based; details: broth dilution, 18 hours at 35° C.
In short: as §1

[5] = anatomic pathology (histopathology of heart and kidney) in mice; format: in vivo; details: CD-1 mice, 20 mg/kg intravenously daily for 9 days, necropsy day 10, microscopic histopathology
Experimental: Samples of tissues from necropsied mice were formalin-fixed, paraffin-embedded, sectioned, stained with hematoxylin and eosin, and examined microscopically. Histopathologic findings were recorded. These findings were subjectively graded on a scale corresponding to slight, mild, moderate, marked and severe as compared to untreated controls.

[6] = test system: Streptococcus pneumoniae (GC 1894); assay: acute lethal infection in mice; format: in vivo; details: female CD-1 mice, intraperitoneal challenge, intravenous 30 min. after infection, 7 day survival
In short: (§2)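 Mice (female CD-1, 20+/−2 gm) receive bacteria ip in broth or hog gastric mucin, then test agent iv after 30 min. Median effective dose is calculated from 7 day survival pooled across 3 tests.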

[7] = test system: Staphylococcus aureus-SMITH (GC 4543); assay: acute lethal infection in mice; format: in vivo; details: acute lethal infection, female CD-1 mice, intraperitoneal challenge, intravenous 30 min. after infection, 7 day survival
In short: as §2

[8] = clinical pathology (serum clinical chemistry) in mice; format: in vivo; details: CD-1 mice, 20 mg/kg intravenously daily for 9 days, sera day 10
Experimental: 20-day-old CD-1 mice were divided into a vehicle control group (5 mice) and a treatment group (5 mice). Samples of glycopeptide antibiotics were administered at 20 mg/kg intravenously daily for 9 days.

Compound: CC(c1ccccc1)C1NC(=O)CNC(=O)C(CO)NC(=O)C(C(O)C2CNC(=N)N2C2OC(CO)C(O)C(O)C2O)NC(=O)C(C(O)C2CNC(=N)N2)NC(=O)C(Cc2ccc(OC3OC(CO)C(OC4OC5COC(c6ccccc6)OC5C(O)C4O)C(O)C3O)cc2)NC1=O (centres unmarked) [Example 104, Cyclo[glycyl-3-methylphenylalanyl-O-[4-O-(4,6-O-benzylidenehexopyranosyl)hexopyranosyl]-tyrosyl-3-(2-iminoimidazolidin-4-yl)seryl-3-(3-hexopyranosyl-2-iminoimidazolidin-4-yl)-serylseryl]]
- MIC Coagulase Negative Staphylococcus (GC 4547) [1]: 1 µg/mL (≈ 0.723 µM)
- MIC Coagulase Negative Staphylococcus (GC 4548) [1]: 0.5 to 1 µg/mL
- MIC Coagulase Negative Staphylococcus (GC 4549) [1]: 0.5 µg/mL (≈ 0.361 µM)
- MIC Coagulase Negative Staphylococcus (GC 4551) [1]: 1 µg/mL (≈ 0.723 µM)
- MIC Coagulase Negative Staphylococcus (GC 6257) [1]: 0.5 µg/mL (≈ 0.361 µM)
- MIC Staphylococcus aureus (ATCC 29213) [1]: 1 µg/mL (≈ 0.723 µM)
- MIC Staphylococcus aureus (GC 1131) [1]: 2 µg/mL (≈ 1.45 µM)
- MIC Staphylococcus aureus (GC 3051) [1]: 1 µg/mL (≈ 0.723 µM)
- MIC Staphylococcus aureus (GC 3053) [1]: 1 µg/mL (≈ 0.723 µM)
- MIC Staphylococcus aureus (GC 4541) [1]: 1 µg/mL (≈ 0.723 µM)
- MIC Staphylococcus aureus (GC 4542) [1]: 0.5 µg/mL (≈ 0.361 µM)
- MIC Staphylococcus aureus (GC 4544) [1]: 1 µg/mL (≈ 0.723 µM)
- MIC Staphylococcus aureus (GC 4545) [1]: 0.5 to 1 µg/mL
- MIC Staphylococcus aureus-SMITH (GC 4543) [1]: 0.5 to 1 µg/mL
- MIC Staphylococcus haemolyticus (GC 4546) [1]: 0.5 µg/mL (≈ 0.361 µM)
- MIC Staphylococcus haemolyticus (GC 4546) ([1]; strain GC 4546): 0.5 µg/mL (≈ 0.361 µM)
- MIC Coagulase Negative Staphylococcus (GC 4547) ([1]; strain GC 4547): 1 µg/mL (≈ 0.723 µM)
- MIC Coagulase Negative Staphylococcus (GC 4548) ([1]; strain GC 4548): 0.5 to 1 µg/mL
- MIC Coagulase Negative Staphylococcus (GC 4549) ([1]; strain GC 4549): 0.5 µg/mL (≈ 0.361 µM)
- MIC Coagulase Negative Staphylococcus (GC 4551) ([1]; strain GC 4551): 1 µg/mL (≈ 0.723 µM)
- MIC Coagulase Negative Staphylococcus (GC 6257) ([1]; strain GC 6257): 0.5 µg/mL (≈ 0.361 µM)
- MIC Staphylococcus aureus-SMITH (GC 4543) ([1]; strain SMITH GC 4543): 0.5 to 1 µg/mL
- MIC Staphylococcus aureus (ATCC 29213) ([1]; strain ATCC 29213): 1 µg/mL (≈ 0.723 µM)
- MIC Staphylococcus aureus (GC 1131) ([1]; strain GC 1131): 2 µg/mL (≈ 1.45 µM)
- MIC Staphylococcus aureus (GC 3051) ([1]; strain GC 3051): 1 µg/mL (≈ 0.723 µM)
- MIC Staphylococcus aureus (GC 3053) ([1]; strain GC 3053): 1 µg/mL (≈ 0.723 µM)
- MIC Staphylococcus aureus (GC 4541) ([1]; strain GC 4541): 1 µg/mL (≈ 0.723 µM)
- MIC Staphylococcus aureus (GC 4542) ([1]; strain GC 4542): 0.5 µg/mL (≈ 0.361 µM)
- MIC Staphylococcus aureus (GC 4544) ([1]; strain GC 4544): 1 µg/mL (≈ 0.723 µM)
- MIC Staphylococcus aureus (GC 4545) ([1]; strain GC 4545): 0.5 to 1 µg/mL
- MIC Escherichia coli (ATCC 25922) ([2]; strain ATCC 25922): 32 to 64 µg/mL
- MIC Escherichia coli (GC 4559) ([2]; strain GC 4559): 16 to 32 µg/mL
- MIC Escherichia coli (GC 4560) ([2]; strain GC 4560): 0.5 to 1 µg/mL
- MIC Streptococcus agalactiae (GC 4564) ([3]; Streptococcus agalactiae (GC 4564)): <0.12 to 0.25 µg/mL
- MIC Streptococcus pneumoniae (ATCC 6301) ([3]; Streptococcus pneumoniae (ATCC 6301)): <0.12 µg/mL
- MIC Streptococcus pneumoniae (GC 1894) ([3]; Streptococcus pneumoniae (GC 1894)): <0.12 µg/mL
- MIC Streptococcus pneumoniae (GC 4565) ([3]; Streptococcus pneumoniae (GC 4565)): <0.12 µg/mL
- MIC Streptococcus pyogenes (GC 4563) ([3]; Streptococcus pyogenes (GC 4563)): <0.12 µg/mL
- MIC Streptococcus pneumoniae (ATCC 6301) ([3]; strain ATCC 6301): <0.12 µg/mL
- MIC Streptococcus pneumoniae (GC 1894) ([3]; strain GC 1894): <0.12 µg/mL
- MIC Streptococcus pyogenes (GC 4563) ([3]; strain GC 4563): <0.12 µg/mL
- MIC Streptococcus agalactiae (GC 4564) ([3]; strain GC 4564): <0.12 to 0.25 µg/mL
- MIC Streptococcus pneumoniae (GC 4565) ([3]; strain GC 4565): <0.12 µg/mL
- MIC Enterococcus avium (GC 4558) ([4]; Enterococcus avium (GC 4558)): 2 to 4 µg/mL
- MIC Enterococcus faecalis (ATCC 29212) ([4]; Enterococcus faecalis (ATCC 29212)): 2 to 4 µg/mL
- MIC Enterococcus faecalis (GC 2242) ([4]; Enterococcus faecalis (GC 2242)): 2 µg/mL (≈ 1.45 µM)
- MIC Enterococcus faecalis (GC 2691) ([4]; Enterococcus faecalis (GC 2691)): 4 µg/mL (≈ 2.89 µM)
- MIC Enterococcus faecalis (GC 3059) ([4]; Enterococcus faecalis (GC 3059)): 4 µg/mL (≈ 2.89 µM)
- MIC Enterococcus faecalis (GC 4552) ([4]; Enterococcus faecalis (GC 4552)): 4 µg/mL (≈ 2.89 µM)
- MIC Enterococcus faecalis (GC 4553) ([4]; Enterococcus faecalis (GC 4553)): 4 µg/mL (≈ 2.89 µM)
- MIC Enterococcus faecalis (GC 4554) ([4]; Enterococcus faecalis (GC 4554)): 4 µg/mL (≈ 2.89 µM)
- MIC Enterococcus faecalis (GC 6189) ([4]; Enterococcus faecalis (GC 6189)): 2 µg/mL (≈ 1.45 µM)
- MIC Enterococcus faecium (GC 2243) ([4]; Enterococcus faecium (GC 2243)): 2 µg/mL (≈ 1.45 µM)
- MIC Enterococcus faecium (GC 4556) ([4]; Enterococcus faecium (GC 4556)): 2 to 4 µg/mL
- MIC Enterococcus faecium (GC 4557) ([4]; Enterococcus faecium (GC 4557)): 2 µg/mL (≈ 1.45 µM)
- MIC Enterococcus faecalis (ATCC 29212) ([4]; strain ATCC 29212): 2 to 4 µg/mL
- MIC Enterococcus faecalis (GC 2242) ([4]; strain GC 2242): 2 µg/mL (≈ 1.45 µM)
- MIC Enterococcus faecium (GC 2243) ([4]; strain GC 2243): 2 µg/mL (≈ 1.45 µM)
- MIC Enterococcus faecalis (GC 2691) ([4]; strain GC 2691): 4 µg/mL (≈ 2.89 µM)
- MIC Enterococcus faecalis (GC 3059) ([4]; strain GC 3059): 4 µg/mL (≈ 2.89 µM)
- MIC Enterococcus faecalis (GC 4552) ([4]; strain GC 4552): 4 µg/mL (≈ 2.89 µM)
- MIC Enterococcus faecalis (GC 4553) ([4]; strain GC 4553): 4 µg/mL (≈ 2.89 µM)
- MIC Enterococcus faecalis (GC 4554) ([4]; strain GC 4554): 4 µg/mL (≈ 2.89 µM)
- MIC Enterococcus faecium (GC 4556) ([4]; strain GC 4556): 2 to 4 µg/mL
- MIC Enterococcus faecium (GC 4557) ([4]; strain GC 4557): 2 µg/mL (≈ 1.45 µM)
- MIC Enterococcus avium (GC 4558) ([4]; strain GC 4558): 2 to 4 µg/mL
- MIC Enterococcus faecalis (GC 6189) ([4]; strain GC 6189): 2 µg/mL (≈ 1.45 µM)
- Anatomical Pathology (Day 10), Heart [5]: +++
- Anatomical Pathology (Day 10), Kidney [5]: +++
- median effective dose (ED50), Streptococcus pneumoniae (GC 1894) [6]: 0.22 mg/kg
- median effective dose (ED50), Staphylococcus aureus-SMITH (GC 4543) [7]: 0.19 mg/kg
- Clinical Chemistry (Day 10) % of Control, AST [8]: +87%
- Clinical Chemistry (Day 10) % of Control, BUN [8]: +203%
- Clinical Chemistry (Day 10) % of Control, Creatinine [8]: +65%

Source: patent US6914045B2, “Glycopeptide antibiotics” (Wyeth Holdings Corporation, priority 2001, dated 2005)
